According to patent US20120122935A1, “COMPOSITIONS AND METHODS FOR TREATING NECROTIZING ENTEROCOLITIS” (NATIONWIDE CHILDREN'S HOSPITAL, INC., priority 2007, published 2012):
Marks after values point to notes of the source that are not given here.

How the values were obtained:
[1] = tested on: Human fetal intestinal epithelial cells (FHS741NT); assay: in vitro model of immature intestinal wound restitution (scrape wound plus LPS); format: cell-based; settings: 50 mg/ml nicotinamide after wounding and LPS administration, FIG. 14
Experimental: We have established cell culture conditions for neonatal human intestinal epithelial cells (IEC), which we have developed as a platform for investigating cellular responses and identifying potential protection strategies. Human fetal intestinal epithelial cells (FHS741NT), passage seven or less, were seeded (40,000 cells/ml) in poly-1-lysine coated 8-chamber slides (Labtek II; Nunc, Rochester, N.Y.) in media (DMEM containing 10% FBS, L-glutamine (2 mM), EGF (30 ng/ml), and insulin (10 μg/ml)) and allowed to reach confluence. A wound was created in the cell monolayer using a specific cell scraper device attached to a microscope. The microscope stage controls allow the creation of a reproducible straight wound in each slide chamber (width 500 μm). After wounding, media was replaced with media (DMEM with 10% FBS, L-glutamine (2 mM)) containing the appropriate treatment compound. […]
Digital images of wounds were captured using a 10× objective on an inverted microscope (Olympus, Melville, N.Y.) with an attached digital camera (Diagnostic Instruments, Sterling Heights, Mich.). […] For each subsequent image, the AOI was placed over the position of the original wound and the area occupied by cells was measured. […] Results were expressed as mean % closure where % closure=area of wound occupied by cells/area of original wound. […]

[2] = doses of 500 mg/kg or more in animal preparations; cited from earlier work
[3] = tested on: newborn rat model of NEC; assay: newborn rat model of NEC (formula feeding, hypoxia, hypothermia, LPS); format: in vivo; settings: for Percent of Pups with NEC (any grade) / Percent of Pups with NEC Grade >2: one oral dose each day, n=8; for overall survival of pups exposed to the rat NEC model: nicotinamide treated vs control pups, FIG. 8
Excerpt: We have established valuable preclinical animal models that mimic intestinal injury in NEC. (Caplan M S, Hedlund E, Adler L, et al. Role of asphyxia and feeding in a neonatal rat model of necrotizing enterocolitis. Pediatr Pathol. November-December 1994; 14(6):1017-1028.) The model involves exposing neonatal rat pups to hypoxia, hypothermia, and formula feeding, leading to physiological stress and intestinal injury that pathologically is very similar to NEC in infants. Pups are delivered by cesarean section at E20 from timed pregnant dams. Pups are fed every 3 h with one skipped feed at 4 am (7 times/day) by oral gavage with 100 ul of a hypertonic formula (Similac and Esbilac). At 8 h post-delivery, pups are treated with 2 mg/kg LPS orally with feeding. Beginning on DOL 1, pups are fed every 3 h and subjected to hypoxic (2 min in 100% nitrogen) and hypothermal (10 min at 4° C.) stress twice daily immediately after feeds. Pups are sacrificed at DOL 4, or when discomfort warrants. Upon sacrifice, the distal ileum is collected in two sections. One section is immediately fixed in 10% neutral buffered formalin, and the other is snap-frozen in liquid nitrogen. Tissues are fixed for 48 h before histological processing and embedding in paraffin.
Each photomicrograph represents a different severity grading score of intestinal injury in this model as follows: (A)=Grade 0 or normal, (B)=Grade 1 or minimal intestinal damage, (C)=Grade 2 or minimal/modest intestinal damage, (D)=Grade 3 or moderate intestinal injury, (E) Grade 4 or severe intestinal injury. This system is based on the previously published intestinal injury grading system for the newborn rat intestinal model of NEC induced by formula feeding-hypoxia-hypothermia.

NC(=O)c1cccnc1 [Nicotinamide, nicotinamide]
wound healing (epithelial restitution) [1]: improves wound healing
wound healing (epithelial restitution) ([1]; listed as nicotinamide): improved wound healing
reported toxicities [2]: little or no reported toxicities
Percent of Pups with NEC (any grade) ([3]; 50 mg/kg nicotinamide): 12.5%*
Percent of Pups with NEC Grade >2 ([3]; 50 mg/kg nicotinamide): 12.5%
Percent of Pups with NEC (any grade) ([3]; 500 mg/kg nicotinamide): 0%*
Percent of Pups with NEC Grade >2 ([3]; 500 mg/kg nicotinamide): 0%
overall survival of pups exposed to the rat NEC model [3]: improved overall survival
overall survival of pups exposed to the rat NEC model ([3]; listed as nicotinamide): improves survival
evidence of NEC Grade 2 or greater ([3]; one oral dose daily at 500 mg/kg): no evidence of NEC Grade 2 or greater
protection against development of NEC / intestinal injury ([3]; one oral dose of 50 or 500 mg/kg each day): strikingly protective against the development of any NEC
